{"source": "patent US12527815B2", "about": "“Aqueous formulation including dissolved hydrogen gas and minerals and additives” (BEST PLANET SCIENCE LLC, priority 2023, dated 2026)", "origin": "cited, not measured here", "conditions": "partial pressure of one atm"}
{"compound": "[HH]", "note": "[hydrogen gas, hydrogen]", "values": [{"measurement": "equilibrium concentration (saturation) of hydrogen gas in water", "value": 1.57, "unit": "mg/L"}]}
